Reference: patent US7667036B2, “Pyrazolo[1,5-a]pyrimidine derivatives” (Teijin Pharma Limited, priority 2004, dated 2010)

Target: T1, MAPKAP-K2 (Homo sapiens, UniProt P49137)
Test: MAPKAP-K2 enzyme activity inhibition assay, Method A (33P-ATP, P81 filter plate)
Format: biochemical
Conditions: 10 μmol/L ATP, 30 μmol/L peptide KKLNRTLSVA, 3% DMSO, 30 min room temperature, read-out: Inhibitory activity (MAPKAP-K2 IC50 class)
Protocol: (§1) The assay of inhibitory activity was performed according to Method A described below for Compound No. 1, 2, 3, 4, 20, 21, 22, 23, 24, 25, 26, 79, 80 and 81, and Method B described below for the other compounds.
A compound was dissolved in DMSO to make its concentration to 10 mmol/L, and further a part of the resulting solution was taken out and stored at −20° C. The stock solution was diluted with DMSO to prepare a stock solution having a 30-fold concentration of the required range. Subsequently the resultant stock solution was diluted to 1:3 to prepare a stock solution having a 10-fold concentration of the required range, and an aliquot of 5 μL of each solution was used for every reaction with 50 μL. During the continuous dilution of all compounds, the final DMSO concentration was maintained at 3% and the solubility of compounds was maximized. Compounds were routinely tested at a final concentration ranging from 300 μmol/L to 0.001 μmol/L, but were sometimes tested at a lower concentration depending upon their activity. (MAPKAP-K2 Enzyme Activity Assay)
The kinase reaction was carried out using a 96-well round-bottomed polypropylene microplate. MAPKAP-Kinase 2 was diluted to 0.5 mU/μL with diluent buffer (50 mmol/L Tris/HCl (pH7.5), 0.1 mmol/L EGTA, 0.1% (v/v) β-mercaptoethanol, and 1 mg/mL BSA). To each well was added 5 μL of a compound or 30% DMSO and subsequently 25 μL of substrate cocktail (final concentration: 10 μmol/L ATP, 30 μmol/L peptide (KKLNRTLSVA), 50 mmol/L 33P-γ-ATP/Tris solution of (pH 7.5, 0.5 μCi), 0.1 mmol/L EGTA, 10 mmol/L magnesium acetate and 0.1% β-mercaptoethanol). To each well was added 20 μL of an enzyme solution or 20 μL of a diluent buffer without contabing enzyme to initiate the reaction, After shaking the plate for 10 sec, it was fibber allowed to stand at room temperature for 30 min. The reaction was terminated with 50 μL of a 150 mmol/L phosphoric acid solution. Then, 90 μL of a reaction mixture solution was transferred to a 96-well P81 filter plate (Whatmann), and incubation was performed at room temperature for 5 min. Subsequently, the filter plate was washed 4 times with 200 μL of a 75 mmol/L phosphoric acid solution per well through a plate suction manifold (Millipore), followed by further drying in an oven for 2 to 3 hrs. Next, after adding Packard Microscint “0” (30 μL) to each well and shaking the plate for 30 min, scintillation measurement was performed using a Packard TopCount scintillation counter. […]

T1 sequence (P49137 whole entry): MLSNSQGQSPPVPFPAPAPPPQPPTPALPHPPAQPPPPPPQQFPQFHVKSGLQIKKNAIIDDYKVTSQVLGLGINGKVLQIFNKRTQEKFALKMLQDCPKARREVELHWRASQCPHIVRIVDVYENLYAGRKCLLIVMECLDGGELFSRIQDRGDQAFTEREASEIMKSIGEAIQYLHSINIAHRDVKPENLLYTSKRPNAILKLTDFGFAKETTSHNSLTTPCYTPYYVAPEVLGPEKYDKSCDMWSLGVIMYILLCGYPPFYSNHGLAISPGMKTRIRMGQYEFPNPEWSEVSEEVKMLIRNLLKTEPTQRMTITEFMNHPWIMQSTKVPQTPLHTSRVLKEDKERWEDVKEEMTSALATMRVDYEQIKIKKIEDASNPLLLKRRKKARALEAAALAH

Row | IC50 [µM] | SMILES
1 | 2 to 20 | C=CCC1CC(N)CCC1Oc1nc2ccnn2c(Nc2ccc(OCC)cc2)c1C (centres unmarked) [compound 25]
2 | 2 to 20 | C=CCC1CC(NC)CCC1Oc1nc2ccnn2c(Nc2ccc(OCC)cc2)c1C (centres unmarked) [compound 26]
3 | 2 to 20 | CCOc1ccc(Nc2c(C)c(SC3CCCNC3)nc3ccnn23)cc1 (centres unmarked) [compound 80]
4 | 2 to 20 | CCOc1ccc(Nc2c(C)c(SCCN)nc3ccnn23)cc1 [compound 81]

Target: T1, MAPKAP-K2
Test: MAPKAP-K2 enzyme activity inhibition assay, Method B (33P-ATP, MultiScreen-PH plate)
Format: biochemical
Conditions: recombinant human MAPKAP-K2, 0.5% DMSO, 30 min room temperature, read-out: Inhibitory activity (MAPKAP-K2 IC50 class)
Protocol: as §1
A compound was dissolved in […] to make its concentration to 20 mmol/L, and the resultant solution was stored at −20° C. The stock solution was sequentially diluted with DMSO to prepare a solution having a 200-fold concentration of the required range. Further the solution was diluted with water to 1:20 to prepare a solution having a 10-fold concentration of the required range, and an aliquot of 5 μL of each solution was used for every reaction with 50 μL. During the continuous dilution of all compounds, the final DMSO concentration was maintained at 0.5%. Compounds were routinely tested at a final concentration ranging from 100 μmol/L to 0.03 μmol/L, but were sometimes tested at a lower concentration depending upon their activity.
The reaction was initiated by adding 25 μL of a peptide substrate solution [60 μmol/L substrate peptide, 20 μmol/L ATP, 50 mmol/L Tris buffer (pH 7.5), 0.1 mmol/L EGTA, 0.1% β-mercaptoetanol, 20 mmol/L magnesium acetate, and 0.1 μCi [γ-33P]ATP (specific radio activity: approximately 110 TBq/mmol)] to 5 μL of a 5% DMSO solution of the test compound and subsequently adding 20 μL of a MAPKAP-K2 enzyme solution [10 mU recombinant human MAPKAP-K2, 50 mmol/L Tris buffer (pH 7.5), 0.1 mmol/L EGTA, 0.1% β-mercaptoethanol, 0.1% BSA]. After performing the reaction for 30 min at room temperature, an equivalent volume of 200 mmol/L phosphoric acid solution was added to terminate the reaction. Subsequently, 90 μL of the reaction product was adsorbed on a MultiScreen-PH Plate (Millipore) and then rinsed with 100 mmol/L phosphoric acid solution. After drying the plate, 30 μL of MicroScint-O (Packard BioScience) was added, and further the count per minute was measured by a scintillation counter to determine the inhibitory activity. The substrate peptide was Lys-Lys-Leu-Asn-Arg-Tlr-Leu-Ser-Val-Ala.
• % Control=(X−B)/(Tot−B)×100 • % Inhibition=100—% Control • X=count per minute of a test compound well • B=count per minute of a well without containing enzyme • Tot=count per minute of a well with DMSO solvent only, without containing the test compound (MAPKAP-K2 inhibitory activity) • IC50 value=the compound concentration at 50% inhibition

Row | SMILES | IC50 [µM]
5 | CCOc1ccc(Nc2c(C)c(OCC3CCCCN3)nc3ccnn23)cc1 (centres unmarked) [compound 245] | 20 to 100
6 | CCOc1ccc(Nc2c(C)c(OC3CCN(C)C3)nc3ccnn23)cc1 (centres unmarked) [compound 256] | 20 to 100
7 | CCOc1ccc(Nc2c(C)c(OCC(C)=O)nc3ccnn23)cc1 [compound 259] | 20 to 100
8 | CCOc1ccc(Nc2c(C)c(OC[C@H]3CCCN3)nc3ccnn23)cc1 [compound 260] | 20 to 100
9 | CCOc1ccc(Nc2c(C)c(OC[C@@H]3CCCN3)nc3ccnn23)cc1 [compound 261] | 20 to 100
10 | CCOc1ccc(Nc2c(C)c(OCCNC)nc3ccnn23)cc1 [compound 263] | 20 to 100
11 | CCOc1ccc(Nc2c(C)c(O[C@@H]3CCNC3)nc3ccnn23)cc1 [compound 264] | 20 to 100
12 | Cc1c(OCCN)nc2ccnn2c1NCc1ccccc1 [compound 270] | 20 to 100
13 | Cc1c(OC2CCCNC2)nc2ccnn2c1NC1CCCC1 (centres unmarked) [compound 272] | 2 to 20
14 | CCOc1ccc(Nc2c(-c3ccccc3)c(OCCN)nc3ccnn23)cc1 [compound 273] | 20 to 100
15 | N[C@H]1CC[C@@H](Oc2nc3ccnn3c(Nc3ccc(OCc4ccccc4)cc3)c2-c2ccccc2)CC1 [compound 274] | 2 to 20
16 | c1ccc(COc2ccc(Nc3c(-c4ccccc4)c(OC4CCCNC4)nc4ccnn34)cc2)cc1 (centres unmarked) [compound 275] | 2 to 20

The remaining lines, values ahead:

Row | IC50 [µM] | SMILES
17 | ≤ 2 | Cc1c(O[C@H]2CC[C@@H](N)CC2)nc2ccnn2c1Nc1ccc(OCCN2CCOCC2)cc1 [compound 90]
18 | ≤ 2 | CC(=O)c1ccc(-c2ccc(Nc3c(C)c(O[C@H]4CC[C@@H](N)CC4)nc4ccnn34)cc2)s1 [compound 92]
19 | ≤ 2 | CCc1c(O[C@H]2CC[C@@H](N)CC2)nc2ccnn2c1Nc1ccc(I)cc1 [compound 102]
20 | ≤ 2 | CCOc1ccc(Nc2c(C)c(OC3CCNCC3)nc3ccnn23)cc1 [compound 239]
21 | 2 to 20 | Cc1c(OC2CCNCC2)nc2ccnn2c1Nc1ccc(OCc2ccccc2)cc1 [compound 240]
22 | 2 to 20 | CCOc1ccc(Nc2c(C)c(OCC3CCCNC3)nc3ccnn23)cc1 (centres unmarked) [compound 244]
23 | 2 to 20 | CCOc1ccc(Nc2c(C)c(OC3CCN(C)CC3)nc3ccnn23)cc1 [compound 253]
24 | 2 to 20 | Cc1c(O[C@H]2CC[C@@H](N)CC2)nc2ccnn2c1NCc1ccccc1 [compound 268]
25 | 2 to 20 | Cc1c(OC2CCCNC2)nc2ccnn2c1NCc1ccccc1 (centres unmarked) [compound 269]
26 | 2 to 20 | Cc1c(O[C@H]2CC[C@@H](N)CC2)nc2ccnn2c1NC1CCCC1 [compound 271]
